Reference: patent publication US20230203060A1 (GENFLEET THERAPEUTICS (SHANGHAI) INC., priority 2020, published 2023)

Experiments:
[1] = tested on: phosphorylated ERK downstream of KRAS G12C in MIA PaCa2 cells; assay: Cell p-ERK detection experiment (HTRF) in MIA PaCa2; assay type: cell-based, human; details: Homo sapiens, MIA PaCa-2, 2 h, MIA PaCa2 cells, 2 hours with compound, Advance ERK phospho-T202/Y204 HTRF kit; read-out: p-ERK IC50
Procedure, shortened: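 KRAS G12C-mutant MIA PaCa2 cells (2.5E4 per well, overnight) exposed 2 h to a 3.16-fold compound dilution series at 0.1% DMSO. Lysates probed 4 h with HTRF antibodies to ERK phospho-T202/Y204; inhibition versus DMSO control and blank, IC50 by four-parameter fit.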

[2] = tested on: A549 cells (KRAS G12S mutant); assay: Cell proliferation inhibition experiment, 3D spheroid, CellTiter-Glo, A549; assay type: cell-based, human; details: Homo sapiens, A549, 120 h, A549 (KRAS G12S mutant) 3D spheroid, 5 days with compound, CellTiter-Glo; read-out: A549 IC50
Procedure, shortened: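 Cells seeded in 2% FBS medium in spheroid plates (800 H358 or 400 A549 per well), grown overnight to form 3D spheroids, then exposed to 3.16-fold compound dilutions (0.1% DMSO) for 5 days. CellTiter-Glo luminescence gave inhibition vs DMSO and medium blanks; IC50 by four-parameter fit.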

Structure (SMILES)	IC50 [1]	IC50 [2]
C=CC(=O)N1CCN2C(=O)c3c(N4CCN(C)C[C@@H]4C)nc(-c4c(O)cccc4Cl)c(Cl)c3OC[C@H]2C1 [Z452, (6aR)-8-acryloyl-4-chloro-3-(2-chloro-6-hydroxyphenyl)-1-((S)-2,4-dimethylpiperazin-1-yl)-6,6a,7,8,9,10-hexahydro-12H-pyrazino[2,1-c]pyrido[3,4-f][1,4]oxazepin-12-one]	0.034 µM	8.99 µM
C=CC(=O)N1CCN2C(=O)c3c(N4CCN(C)C[C@@H]4C)nc(-c4ccccc4F)c(Cl)c3OC[C@H]2C1 [Z407-1, (R)-8-acryloyl-4-chloro-1-((S)-2,4-dimethylpiperazin-1-yl)-3-(2-fluorophenyl)-6,6a,7,8,9,10-hexahydro-12H-pyrazino[2,1-c]pyrido[3,4-f][1,4]oxazepin-12-one]	0.144 µM	9.15 µM
C=CC(=O)N1CCN2C(=O)c3c(N4C[C@H](N(C)C)CC4(C)C)nc(-c4c(F)ccc(F)c4O)c(Cl)c3OC[C@H]2C1 (single isomer, unassigned) [Z475-2]	0.107 µM	5.87 µM
C=CC(=O)N1CCN2C(=O)c3c(N4C[C@H](N5CC(C#N)C5)CC4(C)C)nc(-c4ccccc4F)c(Cl)c3OC[C@H]2C1 (single isomer, unassigned) [Z637-1]	1.12 µM	2.97 µM
C=CC(=O)N1CCN2C(=O)c3c(N4CC(O)CC4(C)C)nc(-c4c(O)cccc4F)c(Cl)c3OC[C@H]2C1 (stereo partly drawn) [Z50, (6aR)-8-amyloyl-4-chloro-3-(2-fluoro-6-hydroxyphenyl)-1-(4-hydroxy-2,2-dimethylpyrrolidin-1-yl)-6,6a,7,8,9,10-hexahydro-12H-pyrazino[2,1-c]pyrido[3,4-f][1,4]oxazepin-12-one]	0.028 µM	> 5 µM
C=CC(=O)N1CCN2C(=O)c3c(N4CCN(C)C[C@@H]4C)nc(-c4c(F)cccc4Cl)c(Cl)c3OC[C@H]2C1 [Z547, (6aR)-8-acryloyl-4-chloro-3-(2-chloro-6-fluorophenyl)-1-((S)-2,4-dimethylpiperazin-1-yl)-6,6a,7,8,9,10-hexahydro-12H-pyrazino[2,1-c]pyrido[3,4-f][1,4]oxazepin-12-one]	0.135 µM	8.16 µM
C=CC(=O)N1CCN2C(=O)c3c(N4C[C@@H](NCC(F)(F)F)CC4(C)C)nc(-c4ccccc4F)c(Cl)c3OC[C@H]2C1 (single isomer, unassigned) [Z662-1]	0.0326 µM	4.09 µM
C=CC(=O)N1CCN2C(=O)c3c(N4CC(N5CCN(C)CC5)CC4(C)C)nc(-c4ccccc4F)c(Cl)c3OC[C@H]2C1 (stereo partly drawn) [Z454, (6aR)-8-acryloyl-4-chloro-1-(2,2-dimethyl-4-(4-methylpiperazin-1-yl)pyrrolidin-1-yl)-3-(2-fluorophenyl)-6,6a,7,8,9,10-hexahydro-12H-pyrazino[2,1-c]pyrido[3,4-f][1,4]oxazepin-12-one]	0.024 µM	2.13 µM
C=CC(=O)N1CCN2C(=O)c3c(N4C[C@H](N5CC(F)C5)CC4(C)C)nc(-c4ccccc4F)c(F)c3OC[C@H]2C1 [Z654-2, (R)-8-acryloyl-4-fluoro-1-((R)-4-(3-fluoroazetidin-1-yl)-2,2-dimethylpyrrolidin-1-yl)-3-(2-fluorophenyl)-6,6a,7,8,9,10-hexahydro-12H-pyrazino[2,1-c]pyrido[3,4-f][1,4]oxazepin-12-one]	0.167 µM	8.58 µM
C=CC(=O)N1CCN2C(=O)c3c(N4C[C@@H](N(C)CC(F)F)CC4(C)C)nc(-c4ccccc4F)c(Cl)c3OC[C@H]2C1 (single isomer, unassigned) [Z659-1]	0.249 µM	6.18 µM
C=CC(=O)N1CCN2C(=O)c3c(N4C[C@H](N5CC(C(F)(F)F)C5)CC4(C)C)nc(-c4ccccc4F)c(Cl)c3OC[C@H]2C1 (single isomer, unassigned) [Z608-1]	1.22 µM	2.95 µM
C=CC(=O)N1CCN2C(=O)c3c(N4C[C@@H](N(C)C)CC4(C)C)nc(-c4ccccc4)c(Cl)c3OC[C@H]2C1 (single isomer, unassigned) [Z655-1]	0.461 µM	3.32 µM
C=CC(=O)N1CCN2C(=O)c3c(N4C[C@@H](N(C)C)CC4(C)C)nc(-c4c(F)ccc(F)c4O)c(Cl)c3OC[C@H]2C1 [Z475-1, (6aR)-8-acryloyl-4-chloro-3-(3,6-difluoro-2-hydroxyphenyl)-1-((S)-4-(dimethylamino)-2,2-dimethylpyrrolidin-1-yl)-6,6a,7,8,9,10-hexahydro-12H-pyrazino[2,1-c]pyrido[3,4-f][1,4]oxazepin-12-one]	0.035 µM	5.17 µM
C=CC(=O)N1CCN2C(=O)c3c(N4CC(N5CCOCC5)CC4(C)C)nc(-c4ccccc4F)c(Cl)c3OC[C@H]2C1 (single isomer, unassigned) [Z468-1]	0.082 µM	3.28 µM
C=CC(=O)N1CCN2C(=O)c3c(N4CC(N(C)CC(F)F)CC4(C)C)nc(-c4ccccc4F)c(Cl)c3OCC2C1 (single isomer, unassigned) [Z659-2]	0.022 µM	2.66 µM
C=CC(=O)N1CCN2C(=O)c3c(N4C[C@@H](C(=O)O)CC4(C)C)nc(-c4c(O)cccc4F)c(Cl)c3OC[C@H]2C1 (single isomer, unassigned) [Z458-1]	3.56 µM	> 10 µM

Structure (SMILES)	IC50 [1]	IC50 [2]
C=CC(=O)N1CCN2C(=O)c3c(N4C[C@@H](N5CCN(C)CC5)CC4(C)C)nc(-c4ccccc4F)c(Cl)c3OC[C@H]2C1 (single isomer, unassigned) [Z454-1]	0.013 µM	2.63 µM
C=CC(=O)N1CCN2C(=O)c3c(N4CC(N(C)C)CC4(C)C)nc(-c4ccccc4F)c(Cl)c3OC[C@H]2C1 (single isomer, unassigned) [Z453-2]	0.168 µM	6.71 µM
C=CC(=O)N1CCN2C(=O)c3c(N4C[C@H](N5CCN(C)CC5)CC4(C)C)nc(-c4c(F)cccc4Cl)c(Cl)c3OC[C@H]2C1 (single isomer, unassigned) [Z635-2]	0.055 µM	2.97 µM
C=CC(=O)N1CCN2C(=O)c3c(N4C[C@@H](N5CCN(C)CC5)CC4(C)C)nc(-c4ccccc4F)c(F)c3OC[C@H]2C1 (single isomer, unassigned) [Z474-1]	0.064 µM	7.95 µM
C=CC(=O)N1CCN2C(=O)c3c(N4CCOC[C@@H]4C)nc(-c4c(O)cccc4F)c(Cl)c3OC[C@H]2C1 [Z32]	0.08 µM	> 5 µM
C=CC(=O)N1CCN2C(=O)c3c(N4CCC[C@@]4(C)C(=O)NC)nc(-c4c(O)cccc4F)c(Cl)c3OC[C@H]2C1 [Z462, (2S)-1-((6aR)-8-acryloyl-4-chloro-3-(2-fluoro-6-hydroxyphenyl)-12-oxo-6,6a,7,8,9,10-hexahydro-12H-pyrazino[2,1-c]pyrido[3,4-f][1,4]oxazepin-1-yl)-N,2-dimethylpyrrolidine-2-carboxamide]	0.165 µM	29.1 µM
C=CC(=O)N1CCN2C(=O)c3c(N4C[C@@H](O)CC4(C)C)nc(-c4ccccc4F)c(F)c3OC[C@H]2C1 (single isomer, unassigned) [Z408-1]	0.305 µM	9.25 µM
C=CC(=O)N1CCN2C(=O)c3c(N4CCN(C)C[C@@H]4C)nc(-c4c(F)cccc4C(F)F)c(Cl)c3OC[C@H]2C1 [Z456, (6aR)-8-acryloyl-4-chloro-3-(2-(difluoromethyl)-6-fluorophenyl)-1-((S)-2,4-dimethylpiperazin-1-yl)-6,6a,7,8,9,10-hexahydro-12H-pyrazino[2,1-c]pyrido[3,4-f][1,4]oxazepin-12-one]	0.077 µM	9.73 µM
C=CC(=O)N1CCN2C(=O)c3c(N4C[C@H](N(C)C)CC4(C)C)nc(-c4cccc(C)c4F)c(Cl)c3OC[C@H]2C1 (single isomer, unassigned) [Z472-2]	0.108 µM	1.65 µM
C=CC(=O)N1CCN2C(=O)c3c(N4C[C@@H](NC)CC4(C)C)nc(-c4ccccc4F)c(Cl)c3OC[C@H]2C1 (single isomer, unassigned) [Z661-1]	0.057 µM	2.9 µM
C=CC(=O)N1CCN2C(=O)c3c(N4C[C@H](N(C)CC(F)(F)F)CC4(C)C)nc(-c4ccccc4F)c(Cl)c3OC[C@H]2C1 (single isomer, unassigned) [Z493]	0.433 µM	7.25 µM
C=CC(=O)N1CCN2C(=O)c3c(N4CC(O)CC4(C)C)nc(-c4c(F)cccc4OC)c(F)c3OC[C@H]2C1 (single isomer, unassigned) [Z450]	0.141 µM	20.5 µM
C=CC(=O)N1CCN2C(=O)c3c(N4C[C@@H](N5CCN(C)CC5)CC4(C)C)nc(-c4c(O)cccc4F)c(Cl)c3OC[C@H]2C1 (single isomer, unassigned) [Z469-1]	0.008 µM	5.23 µM
C=CC(=O)N1CCN2C(=O)c3c(N4C[C@@H](N5CCN(C)CC5)C[C@@H]4C)nc(-c4ccccc4F)c(Cl)c3OC[C@H]2C1 [Z470-2]	0.024 µM	9.61 µM
C=CC(=O)N1CCN2C(=O)c3c(N4CC[C@H](N(C)C)C4(C)C)nc(-c4ccccc4F)c(Cl)c3OC[C@H]2C1 [Z502-2, (6aR)-8-acryloyl-4-chloro-1-(3-(dimethylamino)-2,2-dimethylpyrrolidin-1-yl)-3-(2-fluorophenyl)-6,6a,7,8,9,10-hexahydro-12H-pyrazino[2,1-c]pyrido[3,4-f][1,4]oxazepin-12(6aH)-one]	0.124 µM	6.15 µM
